From ChEMBL document CHEMBL1201862, “PubChem BioAssay data set” (2004)
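Test compounds were applied to cells in 96-well plates for 48 hours at 5 doses. The concentration for 50% growth inhibition is given as GI50.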 Activity calls are given as the source filed them. Cut-off read from the data, not from the text of the source: active = GI50 up to about 1.1 µM and inactive = higher.

Legend:
Assay in all cases: DTP human tumour cell line panel, 48 h
OVCAR-5 = test system: OVCAR-5
OVCAR-8 = test system: OVCAR-8
OVCAR-4 = test system: OVCAR-4
RPMI-8226 = test system: RPMI-8226
DLD-1 = test system: DLD-1
DMS-114 = test system: DMS-114
KM12 = test system: KM12
SF-268 = test system: SF-268
HOP-62 = test system: HOP-62
SK-MEL-5 = test system: SK-MEL-5
A549 = test system: A549
LXFL 529 = test system: LXFL 529
TK-10 = test system: TK-10
KM-20L2 = test system: KM-20L2
SR = test system: SR
NCI-H23 = test system: NCI-H23
HCC 2998 = test system: HCC 2998
M14 = test system: M14
SF-295 = test system: SF-295
HT-29 = test system: HT-29

Measured: GI50

COc1ccc(C2c3cc4c(cc3OC(O)(CO)C2C(=O)O)OCO4)cc1.COc1ccc(C2c3cc4c(cc3OC3(O)COC(=O)C23)OCO4)cc1 (stereo not given)
inactive: OVCAR-5 39.4 µM | OVCAR-8 20.5 µM | OVCAR-4 > 100 µM | RPMI-8226 20.4 µM | DLD-1 21.8 µM | DMS-114 22.2 µM | KM12 28.2 µM | SF-268 28 µM | HOP-62 33.7 µM | SK-MEL-5 19.8 µM | A549 36.2 µM | LXFL 529 15.6 µM | TK-10 67.6 µM | KM-20L2 43.2 µM | SR 19.2 µM | NCI-H23 23.4 µM | HCC 2998 20.2 µM | M14 15.3 µM | SF-295 22.8 µM | HT-29 24.7 µM
